Laboratory results: publication PMC7956971, “Fluorometric Liposome Screen for Inhibitors of a Physiologically Important Bacterial Ion Channel” (Frontiers in Microbiology, 2021)
Where two headings read alike, the source gives them in different places.

What was measured:
KtrAB [1] = target: T1, KtrAB (Bacillus subtilis, UniProt O32081); assay: ACMA fluorescence K+ efflux assay in proteoliposomes, 96-well, Hill fit of final fluorescence; format: biochemical
T1 construct: gene ktrB; purified complex of dimeric membrane protein KtrB and octameric cytoplasmic KtrA ring, reconstituted in liposomes; with Ktr system potassium uptake protein A

NaKΔN19/F92A = target: T2, NaKΔN19/F92A (Bacillus cereus, UniProt Q81HW2, F92A); conditions: read-out: KI; no nucleotide; pH 8.0; KI defined as constant of 50% inhibition
T2 construct: gene BC_0669

KtrB = target: T3, KtrB (Bacillus subtilis, UniProt O32081); assay: ACMA fluorescence K+ efflux assay in proteoliposomes, 96-well, Hill fit of final fluorescence; format: biochemical
T3 construct: purified membrane subunit KtrB alone (no KtrA), reconstituted in liposomes; dimer

KtrAB [2] = target: T4, KtrAB (Bacillus subtilis, UniProt O32081, R417K); assay: ACMA fluorescence K+ efflux assay in proteoliposomes, single concentration; format: biochemical; conditions: ATP form; also tested in the ADP form
T4 construct: gene ktrB; purified complex of dimeric membrane protein KtrB and octameric cytoplasmic KtrA ring, reconstituted in liposomes; with Ktr system potassium uptake protein A
T4 sequence (O32080 whole entry): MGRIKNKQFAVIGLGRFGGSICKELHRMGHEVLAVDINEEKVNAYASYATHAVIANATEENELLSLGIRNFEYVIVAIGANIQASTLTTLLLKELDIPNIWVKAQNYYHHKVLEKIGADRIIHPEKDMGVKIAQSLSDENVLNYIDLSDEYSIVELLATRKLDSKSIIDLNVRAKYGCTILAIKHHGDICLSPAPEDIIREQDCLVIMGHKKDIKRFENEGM
T4 sequence (O32081 whole entry R417K): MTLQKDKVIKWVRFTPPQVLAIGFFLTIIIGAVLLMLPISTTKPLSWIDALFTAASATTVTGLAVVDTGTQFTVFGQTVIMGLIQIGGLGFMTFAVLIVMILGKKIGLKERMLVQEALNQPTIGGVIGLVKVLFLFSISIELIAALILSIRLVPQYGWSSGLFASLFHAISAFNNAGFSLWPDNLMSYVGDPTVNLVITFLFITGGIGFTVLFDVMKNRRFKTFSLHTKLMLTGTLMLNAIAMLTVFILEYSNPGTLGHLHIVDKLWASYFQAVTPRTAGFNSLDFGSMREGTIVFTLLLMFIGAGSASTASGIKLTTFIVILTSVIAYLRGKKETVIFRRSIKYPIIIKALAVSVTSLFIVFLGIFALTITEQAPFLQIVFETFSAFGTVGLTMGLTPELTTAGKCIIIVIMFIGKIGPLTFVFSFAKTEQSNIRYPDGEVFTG

T1 sequence (O32081 whole entry): as the sequence (O32081 whole entry R417K) above, with K417R counted along it
T1 sequence (O32080 whole entry, further chain): as the sequence (O32080 whole entry) above
T2 sequence (Q81HW2 19-110 F92A): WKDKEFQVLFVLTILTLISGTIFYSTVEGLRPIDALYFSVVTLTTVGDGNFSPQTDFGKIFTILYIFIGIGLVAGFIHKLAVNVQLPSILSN
T3 sequence (O32081 whole entry): as the sequence (O32081 whole entry R417K) above, with K417R counted along it

| Structure (SMILES) | IC50 (KtrAB [1]; read-out: KI) | also measured |
| --- | --- | --- |
| CC1CCCC(C)N1CC(O)COc1ccc(Cl)cc1 (centres unmarked) [compound 41, compound #41] | 3 µM | – |
| COc1ccc(CN2CCN(c3cccc(C)c3C)CC2)c(OC)c1 [compound 6, compound #6] | 1 µM | IC50 (NaKΔN19/F92A): 16 µM |
| OC(CN1CCCCCC1)CN(c1ccccc1)c1ccccc1 (centres unmarked) [compound 3, compound #3] | 2 µM | – |
| Cc1cc(C)c(C)c(OCCCCN2CCCCC2)c1 [compound 25, compound #25] | 2 µM | – |
| CCN(CC)CCn1c(=N)n(CC(=O)C23CC4CC(CC(C4)C2)C3)c2ccccc21 [compound 21, compound #21] | 0.8 µM | – |
| CCCN1CCC(N(CCc2ccccc2)Cc2ccccc2)CC1 [compound 31, compound #31] | 1 µM | – |
| Cc1cc(C)c(OCC(O)CNC(C)(C)CC(C)(C)C)c(C)c1 (centres unmarked) [compound 1, compound #1] | 2 µM | IC50 (NaKΔN19/F92A): 14 µM |
| O=C(Nc1ccc(Cl)cc1)Nc1cccc(C(F)(F)F)c1 [compound 36, compound #36] | – | IC50 (KtrB; no nucleotide, KtrB alone, pH 8.0, KI defined as constant of 50% inhibition, read-out: KI): 0.5 µM; IC50 (KtrAB [1]; 0.1 mM ATP (active state), 0.5 mM MgCl2, pH 8.0, KI defined as constant of 50% inhibition, read-out: KI): 8 µM; % inhibition at 6 μM (KtrAB [2]): all tested compounds showed inhibition with both the active and inactive forms of KtrABR417K |
| COc1ccc(Br)cc1CNCCc1cccc(F)c1 [compound 39, compound #39] | – | IC50 (KtrB): 3.8 µM; IC50 (KtrAB [1]): 4 µM |
